Laboratory results reported in PubChem BioAssay AID248 (DTP/NCI, 2004).
“And” between values parts separate entries of the source, which are not always exact repeats. Identical values can stand only once. Inconclusive results and toxic doses are left out.

Tested on: L1210 leukemia ip in BDF1 mice, survival T/C
Test: NCI In Vivo Anticancer Drug Screen. Data for tumor model L1210 Leukemia (intraperitoneal) in B6D2F1 (BDF1) mice
Conditions: endpoint: mean survival time, higher = longer survival
In short: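 Ratio derived from survival: compound-dosed mice over vehicle-dosed mice, all bearing a transplantable tumor.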

[1] = dose: 100.0 mg/kg/injection, schedule: Q04DX003 (ip), vehicle: other
[2] = dose: 200.0 mg/kg/injection, schedule: Q04DX003 (ip), vehicle: other
[3] = dose: 400.0 mg/kg/injection, schedule: Q04DX003 (ip), vehicle: other
[4] = dose: 50.0 mg/kg/injection, schedule: Q01DX009 (ip), vehicle: Klucel (hydroxypropylcellulose) (HPC)
[5] = dose: 50.0 mg/kg/injection, schedule: Q04DX003 (ip), vehicle: Klucel (hydroxypropylcellulose) (HPC)
[6] = dose: 100.0 mg/kg/injection, schedule: Q01DX009 (ip), vehicle: Klucel (hydroxypropylcellulose) (HPC)
[7] = dose: 100.0 mg/kg/injection, schedule: Q04DX003 (ip), vehicle: Klucel (hydroxypropylcellulose) (HPC)
[8] = dose: 200.0 mg/kg/injection, schedule: Q01DX009 (ip), vehicle: Klucel (hydroxypropylcellulose) (HPC)
[9] = dose: 200.0 mg/kg/injection, schedule: Q04DX003 (ip), vehicle: Klucel (hydroxypropylcellulose) (HPC)
[10] = dose: 400.0 mg/kg/injection, schedule: Q01DX001 (ip), vehicle: carboxymethylcellulose (CMC)
[11] = dose: 100.0 mg/kg/injection, schedule: Q04DX002 (ip), vehicle: Klucel (hydroxypropylcellulose) (HPC)
[12] = dose: 200.0 mg/kg/injection, schedule: Q04DX002 (ip), vehicle: Klucel (hydroxypropylcellulose) (HPC)
[13] = dose: 400.0 mg/kg/injection, schedule: Q04DX002 (ip), vehicle: Klucel (hydroxypropylcellulose) (HPC)
[14] = dose: 100.0 mg/kg/injection, schedule: Q01DX001 (ip), vehicle: other
[15] = dose: 200.0 mg/kg/injection, schedule: Q01DX001 (ip), vehicle: other
[16] = dose: 400.0 mg/kg/injection, schedule: Q01DX001 (ip), vehicle: other
[17] = dose: 400.0 mg/kg/injection, schedule: Q04DX003 (ip), vehicle: Klucel (hydroxypropylcellulose) (HPC)
[18] = dose: 400.0 mg/kg/injection, schedule: Q01DX009 (ip), vehicle: Klucel (hydroxypropylcellulose) (HPC)
[19] = dose: 25.0 mg/kg/injection, schedule: Q01DX009 (ip), vehicle: saline with Tween-80
[20] = dose: 50.0 mg/kg/injection, schedule: Q01DX009 (ip), vehicle: saline with Tween-80
[21] = dose: 100.0 mg/kg/injection, schedule: Q01DX009 (ip), vehicle: saline with Tween-80
[22] = dose: 100.0 mg/kg/injection, schedule: Q04DX003 (ip), vehicle: saline with Tween-80
[23] = dose: 200.0 mg/kg/injection, schedule: Q04DX003 (ip), vehicle: saline with Tween-80
[24] = dose: 400.0 mg/kg/injection, schedule: Q04DX003 (ip), vehicle: saline with Tween-80
[25] = dose: 100.0 mg/kg/injection, schedule: Q01DX009 (ip), vehicle: saline
[26] = dose: 200.0 mg/kg/injection, schedule: Q01DX009 (ip), vehicle: saline
[27] = dose: 400.0 mg/kg/injection, schedule: Q01DX009 (ip), vehicle: saline

## COc1ccc(Cc2ccccc2)c(O)c1
dose: 100.0 mg/kg/injection, schedule: Q01DX009 (ip), vehicle: other
  T/C: 93 % of control
[1]
  T/C: 99 % of control
dose: 200.0 mg/kg/injection, schedule: Q01DX009 (ip), vehicle: other
  T/C: 111 % of control
[2]
  T/C: 97 % of control
[3]
  T/C: 91 % of control

## NC(=O)NC(=O)c1nccnc1C(=O)O
dose: 100.0 mg/kg/injection, schedule: Q01DX001 (ip), vehicle: water
  T/C: 88 % of control
dose: 200.0 mg/kg/injection, schedule: Q01DX001 (ip), vehicle: water
  T/C: 101 % of control
dose: 400.0 mg/kg/injection, schedule: Q01DX001 (ip), vehicle: water
  T/C: 87 % of control

## O=C(Oc1ccc(Cl)cc1Cl)Oc1ccc(Cl)cc1Cl
dose: 50.0 mg/kg/injection, schedule: Q01DX001 (ip), vehicle: carboxymethylcellulose (CMC)
  T/C: 98 % of control
[4]
  T/C: 105 % of control
[5]
  T/C: 98 % of control
dose: 100.0 mg/kg/injection, schedule: Q01DX001 (ip), vehicle: carboxymethylcellulose (CMC)
  T/C: 104 % of control
[6]
  T/C: 100 % of control
[7]
  T/C: 95 % of control
dose: 200.0 mg/kg/injection, schedule: Q01DX001 (ip), vehicle: carboxymethylcellulose (CMC)
  T/C: 104 % of control
[8]
  T/C: 103 % of control
[9]
  T/C: 106 % of control
[10]
  T/C: 93 % of control

## OC1CC2(c3ccccc3)OC1(c1ccccc1)c1ccccc12 (stereo unspecified)
[11]
  T/C: 112 % of control
[12]
  T/C: 101 % of control
[13]
  T/C: 115 % of control

## O=CN(N=O)c1ccccc1
dose: 75.0 mg/kg/injection, schedule: Q01DX001 (ip), vehicle: other
  T/C: 104 % of control
dose: 150.0 mg/kg/injection, schedule: Q01DX001 (ip), vehicle: other
  T/C: 97 % of control
dose: 300.0 mg/kg/injection, schedule: Q01DX001 (ip), vehicle: other
  T/C: 96 % of control and 104 % of control

## O=S(=O)(CCCc1ccccc1)c1ccccc1
dose: 50.0 mg/kg/injection, schedule: Q01DX001 (ip), vehicle: other
  T/C: 102 % of control
[14]
  T/C: 102 % of control
[7]
  T/C: 98 % of control
[15]
  T/C: 104 % of control
[9]
  T/C: 100 % of control
[16]
  T/C: 116 % of control
[17]
  T/C: 102 % of control

## COc1ccc(Br)c(CCC(C)C)c1O
[6]
  T/C: 110 % of control
[7]
  T/C: 108 % of control
[8]
  T/C: 95 % of control
[9]
  T/C: 103 % of control
[18]
  T/C: 89 % of control
[17]
  T/C: 101 % of control

## N#CS.[Tl]
dose: 9.5 mg/kg/injection, schedule: Q01DX001 (ip), vehicle: carboxymethylcellulose (CMC)
  T/C: 92 % of control
dose: 19.0 mg/kg/injection, schedule: Q01DX001 (ip), vehicle: carboxymethylcellulose (CMC)
  T/C: 103 % of control
dose: 38.0 mg/kg/injection, schedule: Q01DX001 (ip), vehicle: carboxymethylcellulose (CMC)
  T/C: 105 % of control

## O=C(O)c1cc(=O)c(O)c2c(O)c(O)c(O)cc2c1
dose: 100.0 mg/kg/injection, schedule: Q01DX001 (ip), vehicle: saline
  T/C: 103 % of control
dose: 200.0 mg/kg/injection, schedule: Q01DX001 (ip), vehicle: saline
  T/C: 91 % of control

## Nc1[nH]nc2nc(-c3ccccc3)cnc12
[19]
  T/C: 121 % of control
[20]
  T/C: 110 % of control
[21]
  T/C: 95 % of control and 102 % of control
[22]
  T/C: 94 % of control
[23]
  T/C: 92 % of control
[24]
  T/C: 92 % of control

## O=C(O)c1ccccc1C(=O)NCc1ccc(Cl)cc1Cl
[11]
  T/C: 88 % of control
[12]
  T/C: 100 % of control
[13]
  T/C: 98 % of control

## CN(C(=O)Cl)c1ccccc1
dose: 12.5 mg/kg/injection, schedule: Q01DX009 (ip), vehicle: Klucel (hydroxypropylcellulose) (HPC)
  T/C: 95 % of control
dose: 12.5 mg/kg/injection, schedule: Q04DX003 (ip), vehicle: Klucel (hydroxypropylcellulose) (HPC)
  T/C: 95 % of control
dose: 25.0 mg/kg/injection, schedule: Q01DX009 (ip), vehicle: Klucel (hydroxypropylcellulose) (HPC)
  T/C: 95 % of control
dose: 25.0 mg/kg/injection, schedule: Q04DX003 (ip), vehicle: Klucel (hydroxypropylcellulose) (HPC)
  T/C: 97 % of control
[4]
  T/C: 93 % of control
[5]
  T/C: 93 % of control

## O=C1c2cc(Br)ccc2-c2c(N=Cc3ccc4c(c3)OCO4)cc(Br)cc21
[14]
  T/C: 95 % of control
[15]
  T/C: 103 % of control
[16]
  T/C: 106 % of control

## COc1cc2c(cc1OC(C)=O)C(=O)CCC=C2
[25]
  T/C: 113 % of control
[1]
  T/C: 110 % of control
[26]
  T/C: 103 % of control
[2]
  T/C: 115 % of control
[27]
  T/C: 95 % of control
[3]
  T/C: 103 % of control

## CCOCc1ccc(O)c2ncccc12
dose: 264.0 mg/kg/injection, schedule: Q01DX001 (ip), vehicle: carboxymethylcellulose (CMC)
  T/C: 106 % of control
[10]
  T/C: 107 % of control

## CCCCSc1cc(C)nc2ccccc12
[19]
  T/C: 100 % of control
dose: 25.0 mg/kg/injection, schedule: Q04DX002 (ip), vehicle: saline with Tween-80
  T/C: 93 % of control
[20]
  T/C: 96 % of control
dose: 50.0 mg/kg/injection, schedule: Q04DX002 (ip), vehicle: saline with Tween-80
  T/C: 96 % of control
[21]
  T/C: 93 % of control
dose: 100.0 mg/kg/injection, schedule: Q04DX002 (ip), vehicle: saline with Tween-80
  T/C: 93 % of control

## CCCCCn1cnc2c(=O)[nH]c(N)nc21
dose: 50.0 mg/kg/injection, schedule: Q01DX001 (ip), vehicle: Klucel (hydroxypropylcellulose) (HPC)
  T/C: 105 % of control
dose: 100.0 mg/kg/injection, schedule: Q01DX001 (ip), vehicle: Klucel (hydroxypropylcellulose) (HPC)
  T/C: 103 % of control
dose: 200.0 mg/kg/injection, schedule: Q01DX001 (ip), vehicle: Klucel (hydroxypropylcellulose) (HPC)
  T/C: 106 % of control

## O=C1OC(c2ccc([N+](=O)[O-])cc2)Sc2ccccc21 (stereo unspecified)
[25]
  T/C: 98 % of control
dose: 100.0 mg/kg/injection, schedule: Q04DX003 (ip), vehicle: saline
  T/C: 106 % of control
[26]
  T/C: 94 % of control
dose: 200.0 mg/kg/injection, schedule: Q04DX003 (ip), vehicle: saline
  T/C: 108 % of control
[27]
  T/C: 91 % of control
dose: 400.0 mg/kg/injection, schedule: Q04DX003 (ip), vehicle: saline
  T/C: 97 % of control

## CC1Cc2ccccc2C1=O (stereo unspecified)
[22]
  T/C: 98 % of control
[23]
  T/C: 98 % of control
[24]
  T/C: 103 % of control

## C(=N\Nc1nc2ccccc2s1)/c1ccnc2ccccc12
[6]
  T/C: 102 % of control
[8]
  T/C: 101 % of control
[18]
  T/C: 96 % of control

## O=NN(CCCl)C(=O)NC1CCC(CC2CCC(NC(=O)N(CCCl)N=O)CC2)CC1 (stereo unspecified)
dose: 6.0 mg/kg/injection, schedule: Q01DX001 (ip), vehicle: gum acacia
  T/C: 105 % of control
dose: 12.0 mg/kg/injection, schedule: Q01DX001 (ip), vehicle: gum acacia
  T/C: 151 % of control
dose: 46.0 mg/kg/injection, schedule: Q01DX001 (ip), vehicle: gum acacia
  T/C: 184 % of control
dose: 93.0 mg/kg/injection, schedule: Q01DX001 (ip), vehicle: gum acacia
  T/C: 298 % of control
dose: 187.0 mg/kg/injection, schedule: Q01DX001 (ip), vehicle: gum acacia
  T/C: 315 % of control
dose: 250.0 mg/kg/injection, schedule: Q01DX001 (ip), vehicle: gum acacia
  T/C: 318 % of control
dose: 375.0 mg/kg/injection, schedule: Q01DX001 (ip), vehicle: gum acacia
  T/C: 245 % of control
